Test results reported in ChEMBL document CHEMBL4041545, “Design, synthesis and biological activities of tetrandrine and fangchinoline derivatives as antitumer agents” (Bioorg Med Chem Lett, 2017).

How the values were obtained:
[1] = test system: MCF7; assay: Antiproliferative activity against human MCF7 cells after 48 hrs by MTT assay; assay type: functional, cell-based; conditions: MCF7, 48 h
[2] = test system: HepG2; assay: Antiproliferative activity against human HepG2 cells after 48 hrs by MTT assay; assay type: functional, cell-based; conditions: HepG2, 48 h
[3] = test system: HepG2; assay: Induction of apoptosis in human HepG2 cells assessed as live cells at 0.5 uM after 48 hrs by Annexin-V FITC/propidium iodide staining based flow cytometry (reference value: 86.49%); assay type: functional
[4] = test system: HepG2; assay: Induction of apoptosis in human HepG2 cells assessed as early apoptotic cells at 0.5 uM after 48 hrs by Annexin-V FITC/propidium iodide staining based flow cytometry (reference value: 6.62%); assay type: functional
[5] = test system: HepG2; assay: Potency index, ratio of sunitinib IC50 to compound IC50 for human HepG2 cells; assay type: functional
[6] = test system: HepG2; assay: Induction of apoptosis in human HepG2 cells assessed as late apoptotic cells at 0.5 uM after 48 hrs by Annexin-V FITC/propidium iodide staining based flow cytometry (reference value: 5.53%); assay type: functional
[7] = test system: MCF7; assay: Potency index, ratio of sunitinib IC50 to compound IC50 for human MCF7 cells; assay type: functional
[8] = test system: HepG2; assay: Induction of apoptosis in human HepG2 cells assessed as necrotic cells at 0.5 uM after 48 hrs by Annexin-V FITC/propidium iodide staining based flow cytometry (reference value: 1.36%); assay type: functional

COc1ccc2cc1Oc1ccc(cc1)C[C@H]1c3cc(c(OC)cc3CCN1C)Oc1c(OC(=O)CCl)c(OC)cc3c1[C@H](C2)N(C)CC3
IC50 [1]: 7.13 µM | IC50 [2]: 4.12 µM

CCC(Br)C(=O)Oc1c(OC)cc2c3c1Oc1cc4c(cc1OC)CCN(C)[C@H]4Cc1ccc(cc1)Oc1cc(ccc1OC)C[C@@H]3N(C)CC2 (stereo not given in full)
IC50 [1]: 7.02 µM | IC50 [2]: 3.88 µM

COc1ccc2cc1Oc1ccc(cc1)C[C@H]1c3cc(c(OC)cc3CCN1C)Oc1c(OC(=O)c3cccc([N+](=O)[O-])c3)c(OC)cc3c1[C@H](C2)N(C)CC3
IC50 [1]: 1.99 µM | IC50 [2]: 1.69 µM

COc1ccc2cc1Oc1ccc(cc1)C[C@H]1c3cc(c(OC)cc3CCN1C)Oc1c(OCc3ccccc3)c(OC)cc3c1[C@H](C2)N(C)CC3
Activity [3]: 55.6% | Activity [4]: 10.47% | IC50 [1]: 3.45 µM | Ratio IC50 [5]: 29.2 | IC50 [2]: 0.55 µM | Activity [6]: 28.16% | Ratio IC50 [7]: 7.37 | Activity [8]: 5.77%

COc1ccc2cc1Oc1ccc(cc1)C[C@H]1c3cc(c(OC)cc3CCN1C)Oc1c(OC(=O)c3cccnc3Cl)c(OC)cc3c1[C@H](C2)N(C)CC3
IC50 [1]: 4.01 µM | IC50 [2]: 2.79 µM

CCOC(=O)C(C)[N+]1(C)CCc2cc(OC)c3cc2[C@@H]1Cc1ccc(cc1)Oc1cc(ccc1OC)C[C@H]1c2c(cc(OC)c(OC)c2O3)CCN1C (stereo not given in full)
IC50 [1]: 10.1 µM | IC50 [2]: 13.1 µM

COc1ccc2cc1Oc1ccc(cc1)C[C@H]1c3cc(c(OC)cc3CCN1C)Oc1c(OC(=O)c3cccc(Cl)c3)c(OC)cc3c1[C@H](C2)N(C)CC3
IC50 [1]: 2.98 µM | IC50 [2]: 1.99 µM

COc1ccc2cc1Oc1ccc(cc1)C[C@H]1c3cc(c(OC)cc3CCN1C)Oc1c(OC(=O)c3ccccc3)c(OC)cc3c1[C@H](C2)N(C)CC3
IC50 [1]: 6.34 µM | IC50 [2]: 3.69 µM

COc1ccc2cc1Oc1ccc(cc1)C[C@H]1c3cc(c(OC)cc3CCN1C)Oc1c(OC(=O)c3ccccc3Cl)c(OC)cc3c1[C@H](C2)N(C)CC3
IC50 [1]: 3.51 µM | IC50 [2]: 1.32 µM

COc1ccc2cc1Oc1ccc(cc1)C[C@H]1c3cc(c(OC)cc3CCN1C)Oc1c(OC(=O)c3ccccc3[N+](=O)[O-])c(OC)cc3c1[C@H](C2)N(C)CC3
IC50 [1]: 2.57 µM | IC50 [2]: 2.95 µM

COc1ccc2cc1Oc1ccc(cc1)C[C@H]1c3cc(c(OC)cc3CCN1C)Oc1c(OC(=O)c3cccnc3)c(OC)cc3c1[C@H](C2)N(C)CC3
IC50 [1]: 4.17 µM | IC50 [2]: 1.98 µM

CCOc1ccc(C(=O)Oc2c(OC)cc3c4c2Oc2cc5c(cc2OC)CCN(C)[C@H]5Cc2ccc(cc2)Oc2cc(ccc2OC)C[C@@H]4N(C)CC3)cc1
IC50 [1]: 4.54 µM | IC50 [2]: 0.65 µM

CCOC(=O)C(CC)[N+]1(C)CCc2cc(OC)c3cc2[C@@H]1Cc1ccc(cc1)Oc1cc(ccc1OC)C[C@H]1c2c(cc(OC)c(OC)c2O3)CCN1C (stereo not given in full)
IC50 [1]: 16.6 µM | IC50 [2]: 15.7 µM

COc1ccc2cc1Oc1ccc(cc1)C[C@H]1c3cc(c(OC)cc3CCN1C)Oc1c(OC(C)=O)c(OC)cc3c1[C@H](C2)N(C)CC3
IC50 [1]: 6.99 µM | IC50 [2]: 5.24 µM

COc1ccc2cc1Oc1ccc(cc1)C[C@H]1c3cc(c(OC)cc3CCN1C)Oc1c(O)c(OC)cc3c1[C@H](C2)N(C)CC3 [FANGCHINOLINE]
IC50 [1]: 10.1 µM | IC50 [2]: 9.08 µM

COc1ccc2cc1Oc1ccc(cc1)C[C@H]1c3cc(c(OC)cc3CC[N+]1(C)CC(=O)[O-])Oc1c(OC)c(OC)cc3c1[C@H](C2)N(C)CC3 (stereo not given in full)
IC50 [1]: 11.6 µM | IC50 [2]: 9.98 µM

C/C=C/C=C/C(=O)Oc1c(OC)cc2c3c1Oc1cc4c(cc1OC)CCN(C)[C@H]4Cc1ccc(cc1)Oc1cc(ccc1OC)C[C@@H]3N(C)CC2
IC50 [1]: 6.56 µM | IC50 [2]: 4 µM

COc1ccc2cc1Oc1ccc(cc1)C[C@H]1c3cc(c(OC)cc3CC[N+]1(C)CCO)Oc1c(OC)c(OC)cc3c1[C@H](C2)[N+](C)(CCO)CC3 (stereo not given in full)
IC50 [1]: 9.32 µM | IC50 [2]: 9.67 µM

CCOc1c(OC)cc2c3c1Oc1cc4c(cc1OC)CCN(C)[C@H]4Cc1ccc(cc1)Oc1cc(ccc1OC)C[C@@H]3N(C)CC2
IC50 [1]: 8.55 µM | IC50 [2]: 5.52 µM

CCCCOc1c(OC)cc2c3c1Oc1cc4c(cc1OC)CCN(C)[C@H]4Cc1ccc(cc1)Oc1cc(ccc1OC)C[C@@H]3N(C)CC2
IC50 [1]: 7.34 µM | IC50 [2]: 3.79 µM

COc1ccc2cc1Oc1ccc(cc1)C[C@H]1c3cc(c(OC)cc3CCN1C)Oc1c(OC(=O)c3ccc([N+](=O)[O-])cc3)c(OC)cc3c1[C@H](C2)N(C)CC3
IC50 [1]: 2.99 µM | IC50 [2]: 2.11 µM

COc1ccc2cc1Oc1ccc(cc1)C[C@H]1c3cc(c(OC)cc3CCN1C)Oc1c(OC(=O)c3ccc(Cl)cc3)c(OC)cc3c1[C@H](C2)N(C)CC3
IC50 [1]: 3.79 µM | IC50 [2]: 2.12 µM

COc1ccc2cc1Oc1ccc(cc1)C[C@H]1c3cc(c(OC)cc3CCN1C)Oc1c(OC)c(OC)cc3c1[C@H](C2)N(C)CC3 [FANCHININ]
IC50 [1]: 8.62 µM | IC50 [2]: 6.82 µM

COc1ccc2cc1Oc1ccc(cc1)C[C@H]1c3cc(c(OC)cc3CCN1C)Oc1c(OC(=O)/C=C/c3ccccc3)c(OC)cc3c1[C@H](C2)N(C)CC3
IC50 [1]: 6.12 µM | IC50 [2]: 3.59 µM

COc1ccc2cc1Oc1ccc(cc1)C[C@H]1c3cc(c(OC)cc3CC[N+]1(C)CC(=O)[O-])Oc1c(OC)c(OC)cc3c1[C@H](C2)[N+](C)(CC(=O)[O-])CC3 (stereo not given in full)
IC50 [1]: 14.6 µM | IC50 [2]: 10 µM

COc1ccc2cc1Oc1ccc(cc1)C[C@H]1c3cc(c(OC)cc3CCN1C)Oc1c(OC(C)C)c(OC)cc3c1[C@H](C2)N(C)CC3
IC50 [1]: 7.98 µM | IC50 [2]: 4.92 µM

COc1ccc2cc1Oc1ccc(cc1)C[C@H]1c3cc(c(OC)cc3CCN1C)Oc1c(OC(=O)c3ccccc3OC(C)=O)c(OC)cc3c1[C@H](C2)N(C)CC3
IC50 [1]: 5.12 µM | IC50 [2]: 1.78 µM
